This note sets out measurements from PMC4109836, “Analysis of the co-operative interaction between the allosterically regulated proteins GK and GKRP using tryptophan fluorescence” (Biochemical Journal, 2014).

Substitutions are numbered along the chain they refer to.

One experiment addresses T1, GK-W99R/W167F/W257F (Homo sapiens, UniProt P35557, W167F/W257F/W99R).
T1 construct: GST (cleaved yes); made in house; host or cells: Escherichia coli
T1 sequence (P35557 1-465 W99R/W167F/W257F): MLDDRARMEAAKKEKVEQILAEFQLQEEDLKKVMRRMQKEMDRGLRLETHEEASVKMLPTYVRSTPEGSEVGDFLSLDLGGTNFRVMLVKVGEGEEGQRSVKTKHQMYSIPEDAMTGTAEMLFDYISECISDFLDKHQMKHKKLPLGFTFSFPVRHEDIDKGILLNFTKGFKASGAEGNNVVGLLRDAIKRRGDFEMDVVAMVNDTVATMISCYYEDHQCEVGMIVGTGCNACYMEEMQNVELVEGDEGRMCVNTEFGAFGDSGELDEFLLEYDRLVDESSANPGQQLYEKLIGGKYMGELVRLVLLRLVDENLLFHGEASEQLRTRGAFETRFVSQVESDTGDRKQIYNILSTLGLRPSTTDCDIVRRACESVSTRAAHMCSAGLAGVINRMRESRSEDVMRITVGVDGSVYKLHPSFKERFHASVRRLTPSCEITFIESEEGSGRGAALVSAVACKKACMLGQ
Nature of the experiment: Glucose binding to unbound GK-W99R/W167F/W257F.

In a further experiment the target is T2, GKRP-WT (Homo sapiens, UniProt Q14397).
T2 construct: FLAG; made in house; host or cells: Escherichia coli
T2 sequence (Q14397 1-625): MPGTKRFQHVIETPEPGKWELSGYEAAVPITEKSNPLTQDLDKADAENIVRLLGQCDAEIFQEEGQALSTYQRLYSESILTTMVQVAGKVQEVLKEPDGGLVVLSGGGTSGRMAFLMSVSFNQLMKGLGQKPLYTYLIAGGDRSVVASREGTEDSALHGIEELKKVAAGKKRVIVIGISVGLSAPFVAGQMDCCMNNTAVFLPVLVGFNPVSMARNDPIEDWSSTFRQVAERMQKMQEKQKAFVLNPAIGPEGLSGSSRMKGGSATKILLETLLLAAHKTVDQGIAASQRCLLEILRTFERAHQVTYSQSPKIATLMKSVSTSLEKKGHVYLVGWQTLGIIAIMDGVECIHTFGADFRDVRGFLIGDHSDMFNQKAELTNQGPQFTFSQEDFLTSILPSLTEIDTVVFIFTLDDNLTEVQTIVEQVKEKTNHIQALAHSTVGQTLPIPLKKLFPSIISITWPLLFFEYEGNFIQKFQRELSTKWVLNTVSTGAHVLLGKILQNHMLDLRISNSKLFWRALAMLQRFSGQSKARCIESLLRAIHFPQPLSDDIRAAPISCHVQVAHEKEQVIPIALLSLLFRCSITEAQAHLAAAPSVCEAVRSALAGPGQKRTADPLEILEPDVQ
Nature of the experiment: Ligand binding to free GKRP-WT measured by TF of GKRP. Conditions: ligand alone.

Experiment [1] has as its target T3, hGKRP (0.3 μM)–GK-W99R/W167F/W257F (1 μM) complex, GKRP-P446L (Homo sapiens, UniProt P35557+Q14397, P446L/W167F/W257F/W99R).
T3 construct: FLAG; GST (cleaved yes); made in house; host or cells: Escherichia coli
T3 sequence (Q14397 1-625 P446L): T2 sequence (Q14397 1-625) with P446L
T3 sequence (P35557 1-465 W99R/W167F/W257F): T1 sequence (P35557 1-465 W99R/W167F/W257F)
As to the kind of experiment: Ligand binding by / disassembly of GKRP-P446L–GK-W99R/W167F/W257F complex by TF of hGKRP. To be noted: ligand titration of 3:1 GK–GKRP-P446L complex, 20°C. The method, then:
Spectra were measured with a Fluorolog-3-21 Jobin-Yvon Spex Instrument SA equipped with a 450 W Xenon lamp for excitation and a cooled R2658P Hamamatsu photomultiplier tube for detection. For all measurements, 90° geometry was employed and 295 nm excitation wavelengths were used to observe fluorescence emission in the 300–500 nm range. For TF, spectra slit width was set to provide a bandpath of 3 nm for excitation and 3 nm for emission. Spectra were corrected for instrumental response using Spex instrument software. A thermostatically controlled cell holder maintained sample temperature at 20°C. A thermocoupler was used to measure sample temperature. The buffer used contained 20 mM phosphate, 50 mM KCl, 1 mM EDTA and 1 mM DTT (pH 7.2).
Fluorescence data were obtained via the stepwise addition of the appropriate amount of non-fluorescent GK-W99R/W167F/W257F to GKRP in a fluorescence cuvette. […] The change in GKRP protein fluorescence during titration was also measured using time-dependent scans. A manual procedure was used such that a typical titration with 10–12 additions required 20–25 min to perform. The same buffer as described above was routinely used unless stated otherwise. The bandpath was 0.5 nm at 295 nm for excitation and 12 nm at 340 nm for emission. […] For some graphical presentations the linear form of the Hill equation was used: log[F/(Fsat−F)]=H log x−H log KD [46].

At GK-W99R/W167F/W257F, `OC[C@H]1OC(O)[C@H](O)[C@@H](O)[C@@H]1O` (stereo partly drawn) [D-Glucose, D-glucose] came in with a Kd of 5 mM. Further, the “ΔF (relative fluorescence change at 340 nm)” value at GKRP-WT (0.3 μM GKRP-WT, 20°C) was determined as 0. Moreover, the “effect on the TF signal of GKRP-WT” value on GKRP-WT is on record as “no effect”. This compound also had a H in experiment [1] of 1.
